From patent publication EP0745595A1, “3-(3-Aryloxyphenyl)-1-(substituted methyl)-s-triazine-2,4,6-oxo or thiotrione herbicidal agents” (American Cyanamid Company, priority 1995, dated 1996) come the findings set out here.

Common to all, as to format: in vivo
Series [1] concerns AMBROSIA ARTEMISIIFOLIA, L. In words: Postemergence herbicidal evaluation, AMBEL (Ragweed, Common). The gist of the method:
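Postemergence herbicidal activity on AMBEL (common ragweed) was assessed on two-week-old seedlings grown in jiffy flats. Treatment solutions of 50/50 acetone/water with 0.5% TWEEN®20 surfactant were sprayed at 40 psi. After four to five weeks in the greenhouse, plants were scored 0-9 against a control for stand, vigor, malformation, size, chlorosis and overall appearance, with multiple tests averaged.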

Series [2] relates to ECHINOCHLOA CRUS-GALLI, (L) BEAU. In words: Postemergence herbicidal evaluation, ECHCG (Barnyardgrass). On the set-up: key to ECHCG rating / Herbicidal effect rating, ECHCG / ECHCG: 0-9 visual rating scale vs untreated control. The gist of the method: (§1)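 Ratings (0-9) reflect visual stand, vigor, malformation, size and chlorosis compared with untreated plants, assessed 4-5 weeks after postemergence spraying. Treatment was applied to roughly two-week-old seedlings at about 0.125-0.500 kg/ha in acetone/water with 0.5% Tween 20; replicate tests were averaged.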

In series [3] the test system is SETARIA VIRIDIS, (L) BEAU. In words: Postemergence herbicidal evaluation, SETVI (Foxtail, Green). Further details: key to SETVI rating / Herbicidal effect rating, SETVI / SETVI: 0-9 visual rating scale vs untreated control. The gist of the method:
as §1

Series [4] concerns TRITICUM AESTIVUM, CV. APOLLO. In words: Postemergence herbicidal evaluation, TRZAWO (Wheat, Winter, CV. APOLLO). The method, then: In the tests, seedling plants are grown in jiffy flats for about two weeks. The test compounds are dispersed in 50/50 acetone/water mixtures containing 0.5% TWEEN®20, a polyoxyethylene sorbitan monolaurate surfactant of Atlas Chemical Industries, […] through a spray nozzle operating at 40 psi for a predetermined time. After spraying, the plants are placed on greenhouse benches and are cared for in the usual manner, commensurate with conventional greenhouse practices. From four to five weeks after treatment, the seedling plants are examined and rated according to the rating system set forth below. Where more than one test is involved for a given compound, the data are averaged.
Plant species employed in these evaluations are reported by header abbreviation, common name and scientific name.
Results of herbicide evaluation are expressed on a rating scale (0-9). The scale is based upon a visual observation of plant stand, vigor, malformation, size, chlorosis and overall plant appearance as compared with a control.

The test system of series [5] is CHENOPODIUM ALBUM, L. In words: Preemergence herbicidal evaluation, CHEAL (Lambsquarters, Common). To be noted: rated four to five weeks after treatment. The gist of the method:
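Seeds mixed with potting soil were planted on about one inch of soil in cups, then sprayed with aqueous acetone solution of test compound at about 0.125 to 0.50 kg per hectare. Plants grown under greenhouse conditions; visual rating on a 0-9 scale versus untreated control at 4-5 weeks.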

Series [6] concerns ORYZA SATIVA, L. TEBONNET
In words: Rice tolerance to post-transplant applications under flooded paddy conditions, ORYSAT (Rice, Tebonnet). To be noted: 0.500 kg/ha, post-transplant rice, 3-4 weeks after treatment. Put shortly:
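Visual 0-9 rating against untreated control (stand, vigor, malformation, size, chlorosis, overall appearance), taken 3-4 weeks after treatment. Flooded silt loam, water at 1.5-3 cm; two 10-day-old seedlings per pot; compound applied to flooded soil surface 3 days post-transplant at ~0.5-0.063 kg/ha.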

Series [7] concerns ABUTILON THEOPHRASTI, MEDIC. In words: Postemergence herbicidal evaluation, ABUTH (Velvetleaf). Put shortly: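 This postemergence herbicide test used two-week-old velvetleaf seedlings grown in jiffy flats. Each compound was sprayed at 40 psi as a dispersion in 50/50 acetone/water with 0.5% TWEEN®20 surfactant. Plants then received routine greenhouse care. After four to five weeks, injury was scored visually on a 0-9 scale against a control, and replicate tests were averaged.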

The subject of series [8] is CHENOPODIUM ALBUM, L. In words: Postemergence herbicidal evaluation, CHEAL (Lambsquarters, Common). Put shortly: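 Postemergence herbicidal activity on Chenopodium album was tested by spraying two-week-old seedlings grown in jiffy flats with compound in acetone/water (50/50) plus 0.5% TWEEN®20, using a 40 psi nozzle. Four to five weeks after treatment, stand, vigor, malformation, size, chlorosis and overall appearance were scored 0-9 relative to controls, with repeat tests averaged.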

The subject of series [9] is GALIUM APARINE. In words: Postemergence herbicidal evaluation, GALAP (Galium). Further details: key to GALAP rating / Herbicidal effect rating, GALAP / GALAP: 0-9 visual rating scale vs untreated control. The gist of the method: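 In this postemergence greenhouse test, two-week-old Galium aparine seedlings grown in jiffy flats received a 40 psi spray of compound in acetone/water (50/50) with 0.5% TWEEN®20 surfactant. After four to five weeks, stand, vigor, malformation, size, chlorosis and overall appearance were compared with untreated controls on a 0-9 scale, averaging multiple tests.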

Series [10] deals with ZEA MAYS L. In words: Postemergence herbicidal evaluation, ZEAMX (Corn, Field). Put shortly: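 This greenhouse postemergence test treated corn plants about two weeks old. Compounds in a 50/50 acetone/water mixture with 0.5% TWEEN®20 were applied through a spray nozzle at 40 psi. After four to five weeks, injury was scored 0-9 against an untreated control, judging stand, vigor, malformation, size, chlorosis and overall appearance. Repeated tests were averaged.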

As to `COC(=O)Cn1c(=O)n(C)c(=O)n(-c2cc(Oc3ccc(SC)cc3Cl)ccc2[N+](=O)[O-])c1=O` [Compound 34, Methyl 3-{5-[2-chloro-4-(methylthio)-phenoxy]-2-nitrophenyl}tetrahydro-5-methyl-2,4,6-trioxo-s-triazine-1(2H)-acetate], the AMBEL rating in series [1] (Rate 0.125 kg/ha), in [1] (Rate 0.250 kg/ha) and in series [1] (Rate 0.500 kg/ha) was 2.0 in each case. Moreover, the ECHCG rating in series [2] (Rate 0.125 kg/ha), in series [2] (Rate 0.250 kg/ha) and in [2] (Rate 0.500 kg/ha) was 0.0 in each case. Also, the SETVI rating in [3] (Rate 0.125 kg/ha), in series [3] (Rate 0.250 kg/ha) and in series [3] (Rate 0.500 kg/ha) was 0.0 throughout. Further, the TRZAWO rating in series [4] (Rate 0.125 kg/ha), in series [4] (Rate 0.250 kg/ha) and in series [4] (Rate 0.500 kg/ha) was 2.0 in each case. Moreover, the CHEAL herbicidal rating in series [5] (Rate 0.125 kg/ha), in [5] (Rate 0.250 kg/ha) and in series [5] (Rate 0.500 kg/ha) was 0.0 throughout. In addition, the “Herbicidal effect rating, ORYSAT” value in [6] is on record as 0.0.
Take `COC(=O)Cn1c(=O)n(C)c(=O)n(-c2cc(Oc3cc(Cl)cc(Cl)c3)ccc2[N+](=O)[O-])c1=O` [Compound 35, Methyl 3-[5-(3,5-dichlorophenoxy)-2-nitrophenyl]tetrahydro-5-methyl-2,4,6-trioxo-s-triazine-1(2H)-acetate]: the ABUTH rating in series [7] (Rate 0.125 kg/ha), in [7] (Rate 0.250 kg/ha) and in series [7] (Rate 0.500 kg/ha) was 0.0 in each case. Further, the AMBEL rating in [1] (Rate 0.125 kg/ha), in [1] (Rate 0.250 kg/ha) and in [1] (Rate 0.500 kg/ha) was 0.0 throughout. In addition, the CHEAL rating in [8] (Rate 0.125 kg/ha), in [8] (Rate 0.250 kg/ha) and in series [8] (Rate 0.500 kg/ha) was 0.0 throughout. Besides, the GALAP rating in series [9] (Rate 0.125 kg/ha), in series [9] (Rate 0.250 kg/ha) and in [9] (Rate 0.500 kg/ha) was 0.0 each time. Besides, the ECHCG rating in [2] (Rate 0.125 kg/ha), in series [2] (Rate 0.250 kg/ha) and in series [2] (Rate 0.500 kg/ha) was 0.0 in each case. For the same molecule, the SETVI rating in series [3] (Rate 0.125 kg/ha), in series [3] (Rate 0.250 kg/ha) and in series [3] (Rate 0.500 kg/ha) was 0.0 throughout. Moreover, the TRZAWO rating in series [4] (Rate 0.125 kg/ha), in series [4] (Rate 0.250 kg/ha) and in series [4] (Rate 0.500 kg/ha) was 0.0 in each case. Also, the ZEAMX rating in series [10] (Rate 0.125 kg/ha), in series [10] (Rate 0.250 kg/ha) and in [10] (Rate 0.500 kg/ha) was 1.0 in each case. Further, in series [5] (Rate 0.500 kg/ha), the CHEAL herbicidal rating was found to be 0.0. Further, in [6], the “Herbicidal effect rating, ORYSAT” value amounted to 0.0.
